Assay results taken from PubChem BioAssay (NCI).
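Following 48 hours of exposure in 96-well plates, responses at five concentrations were used to interpolate endpoints linearly. At the TGI there is no net growth.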

Legend:
Assay in all cases: NCI tumour cell line growth inhibition, 48 h
IGROV1 ovarian = system: IGROV1 ovarian
HCT-15 colon = system: HCT-15 colon
COLO 205 colon = system: COLO 205 colon
M19-MEL melanoma = system: M19-MEL melanoma
DMS 273 small cell lung = system: DMS 273 small cell lung
OVCAR-8 ovarian = system: OVCAR-8 ovarian
HT29 colon = system: HT29 colon
LXFL 529 NSCLC = system: LXFL 529 NSCLC
CAKI-1 renal = system: CAKI-1 renal
A498 renal = system: A498 renal
TK-10 renal = system: TK-10 renal
HCT-116 colon = system: HCT-116 colon
HOP-92 NSCLC = system: HOP-92 NSCLC
M14 melanoma = system: M14 melanoma
SW-620 colon = system: SW-620 colon
SN12C renal = system: SN12C renal
SK-MEL-2 melanoma = system: SK-MEL-2 melanoma
KM20L2 colon = system: KM20L2 colon
UACC-257 melanoma = system: UACC-257 melanoma
SF-268 CNS = system: SF-268 CNS
HOP-18 NSCLC = system: HOP-18 NSCLC
SK-MEL-5 melanoma = system: SK-MEL-5 melanoma
SF-295 CNS = system: SF-295 CNS
RPMI-8226 leukemia = system: RPMI-8226 leukemia
SF-539 CNS = system: SF-539 CNS
SK-OV-3 ovarian = system: SK-OV-3 ovarian
NCI-H460 lung = system: NCI-H460 lung
KM12 colon = system: KM12 colon
SNB-78 CNS = system: SNB-78 CNS
SK-MEL-28 melanoma = system: SK-MEL-28 melanoma
MALME-3M melanoma = system: MALME-3M melanoma
OVCAR-3 ovarian = system: OVCAR-3 ovarian
UACC-62 melanoma = system: UACC-62 melanoma
K-562 leukemia = system: K-562 leukemia
DLD-1 colon = system: DLD-1 colon
LOX IMVI melanoma = system: LOX IMVI melanoma
HCC-2998 colon = system: HCC-2998 colon
NCI-H226 lung = system: NCI-H226 lung
HOP-62 NSCLC = system: HOP-62 NSCLC
CCRF-CEM leukemia = system: CCRF-CEM leukemia
ACHN renal = system: ACHN renal
U251 CNS = system: U251 CNS
NCI-H23 lung = system: NCI-H23 lung
MOLT-4 leukemia = system: MOLT-4 leukemia
SR leukemia = system: SR leukemia
SNB-75 CNS = system: SNB-75 CNS
RXF 393 renal = system: RXF 393 renal
786-0 renal = system: 786-0 renal
HL-60(TB) leukemia = system: HL-60(TB) leukemia
DMS 114 small cell lung = system: DMS 114 small cell lung
RXF-631 renal = system: RXF-631 renal
UO-31 renal = system: UO-31 renal
OVCAR-5 ovarian = system: OVCAR-5 ovarian
XF 498 CNS = system: XF 498 CNS
EKVX NSCLC = system: EKVX NSCLC
OVCAR-4 ovarian = system: OVCAR-4 ovarian
A549 NSCLC = system: A549 NSCLC

Question: Which results are given for `C/C(=N\NC(N)=S)c1ccc(C)c(C)c1`?
Answer: TGI (IGROV1 ovarian): > 100 µM; TGI (HCT-15 colon): > 100 µM; TGI (COLO 205 colon): > 100 µM; TGI (M19-MEL melanoma): > 100 µM; TGI (DMS 273 small cell lung): > 100 µM; TGI (OVCAR-8 ovarian): > 100 µM; TGI (HT29 colon): 98.9 µM; TGI (LXFL 529 NSCLC): > 100 µM; TGI (CAKI-1 renal): > 100 µM; TGI (A498 renal): > 100 µM; TGI (TK-10 renal): > 100 µM; TGI (HCT-116 colon): > 100 µM; TGI (HOP-92 NSCLC): > 100 µM; TGI (M14 melanoma): > 100 µM; TGI (SW-620 colon): > 100 µM; TGI (SN12C renal): > 100 µM; TGI (SK-MEL-2 melanoma): > 100 µM; TGI (KM20L2 colon): > 100 µM; TGI (UACC-257 melanoma): > 100 µM; TGI (SF-268 CNS): > 100 µM; TGI (HOP-18 NSCLC): > 100 µM; TGI (SK-MEL-5 melanoma): > 100 µM; TGI (SF-295 CNS): > 100 µM; TGI (RPMI-8226 leukemia): > 100 µM; TGI (SF-539 CNS): > 100 µM; TGI (SK-OV-3 ovarian): > 100 µM; TGI (NCI-H460 lung): > 100 µM; TGI (KM12 colon): > 100 µM; TGI (SNB-78 CNS): > 100 µM; TGI (SK-MEL-28 melanoma): > 100 µM; TGI (MALME-3M melanoma): 94.1 µM; TGI (OVCAR-3 ovarian): 66.7 µM; TGI (UACC-62 melanoma): > 100 µM; TGI (K-562 leukemia): > 100 µM; TGI (DLD-1 colon): > 100 µM; TGI (LOX IMVI melanoma): > 100 µM; TGI (HCC-2998 colon): > 100 µM; TGI (NCI-H226 lung): > 100 µM; TGI (HOP-62 NSCLC): > 100 µM; TGI (CCRF-CEM leukemia): > 100 µM; TGI (ACHN renal): > 100 µM; TGI (U251 CNS): > 100 µM; TGI (NCI-H23 lung): > 100 µM; TGI (MOLT-4 leukemia): 90.2 µM; TGI (SR leukemia): > 100 µM; TGI (SNB-75 CNS): > 100 µM; TGI (RXF 393 renal): 86.4 µM; TGI (786-0 renal): > 100 µM; TGI (HL-60(TB) leukemia): 75.4 µM; TGI (DMS 114 small cell lung): 38.3 µM; TGI (RXF-631 renal): > 100 µM; TGI (UO-31 renal): > 100 µM; TGI (OVCAR-5 ovarian): > 100 µM; TGI (XF 498 CNS): 48.1 µM; TGI (EKVX NSCLC): > 100 µM; TGI (OVCAR-4 ovarian): > 100 µM; TGI (A549 NSCLC): > 100 µM
